Assay results taken from the supplement of paper PMC10307832.

Columns and labels:
Assay in all cases: relative viability (nuclei count vs DMSO), 5 days (fraction); higher = more cells survive
[1] = compound: C[C@]1(O)C[C@@H](c2nc(-c3ccc4ccc(-c5ccccc5)nc4c3)c3c(N)nccn32)C1 [Linsitinib] + N=C(N)NC(=N)NCCc1ccccc1 [Phenformin] (partner 250 µM)
Outline: (§1)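 Dosing by pin tool came one day after lung cancer cell lines were seeded in 1536-well plates, using either one drug or a fixed anchor-drug dose plus five library-drug doses (not always all listed) in √10 steps. After 5 days, nuclei were counted on 4× images. Relative viability is treated-well nuclei count divided by vehicle-well nuclei count, and values are medians of duplicate plates.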

[2] = compound: Cc1ccc(C(=O)N(CCCN)[C@@H](c2nc3cc(Cl)ccc3c(=O)n2Cc2ccccc2)C(C)C)cc1 [Ispinesib] + CCNC(=O)c1noc(-c2cc(C(C)C)c(O)cc2O)c1-c1ccc(CN2CCOCC2)cc1 [Luminespib] (partner 0.01 µM)
Outline: as §1

[3] = compound: Cc1ccc(C(=O)N(CCCN)[C@@H](c2nc3cc(Cl)ccc3c(=O)n2Cc2ccccc2)C(C)C)cc1 [Ispinesib] + CC(C)C[C@H](NC(=O)[C@H](Cc1ccccc1)NC(=O)c1cnccn1)B(O)O [Bortezomib] (partner 0.002 µM)
Outline: as §1

[4] = compound: Cc1ccc(C(=O)N(CCCN)[C@@H](c2nc3cc(Cl)ccc3c(=O)n2Cc2ccccc2)C(C)C)cc1 [Ispinesib] + C[C@]1(O)C[C@@H](c2nc(-c3ccc4ccc(-c5ccccc5)nc4c3)c3c(N)nccn32)C1 [Linsitinib] (partner 1 µM)
Outline: as §1

UMC-11
relative viability ([1]; first compound 0.01 µM): 0.332 | relative viability ([1]; first compound 0.03162 µM): 0.29 | relative viability ([1]; first compound 0.1 µM): 0.343 | relative viability ([1]; first compound 1 µM): 0.321 | relative viability ([2]; first compound 0.001 µM): 0.919 | relative viability ([2]; first compound 0.003162 µM): 1.02 | relative viability ([2]; first compound 0.01 µM): 1.05 | relative viability ([2]; first compound 0.03162 µM): 0.451 | relative viability ([2]; first compound 0.1 µM): 0.323 | relative viability ([3]; first compound 0.001 µM): 0.505 | relative viability ([3]; first compound 0.003162 µM): 0.72 | relative viability ([3]; first compound 0.01 µM): 0.657 | relative viability ([3]; first compound 0.03162 µM): 0.207 | relative viability ([3]; first compound 0.1 µM): 0.183 | relative viability ([4]; first compound 0.001 µM): 1.06 | relative viability ([4]; first compound 0.003162 µM): 1.05 | relative viability ([4]; first compound 0.01 µM): 1.05 | relative viability ([4]; first compound 0.03162 µM): 0.449 | relative viability ([4]; first compound 0.1 µM): 0.244
